In patent publication US6642221B1, “Vanadium compounds as anti-proliferative agents” (Parker Hughes Institute, priority 2000, dated 2003):
Read-outs that look alike come from different tables or passages of the source.

What was measured:
[1] = system: U373 glioblastoma cells; assay: MTT cytotoxicity assay; assay type: cell-based, human; conditions: U373, 48 hours; read-out: IC50 (inhibition of cellular proliferation, MTT)
Experimental: (§1) BT-20 and MDA-MB-231 breast cancer cells (HTB-19, HTB-26 ATCC, Rockville, Md.) and U373 glioblastoma cells (HTB-17 ATCC Rockville, Md.) were grown in MEM media modified with 10% Fetal Bovine serum and 1% Penicillin/Streptomycin (Life Technologies, Rockville Md.). Cells were seeded onto sterile 22 mm square coverslips in 6-well plates. Cells on coverslips were kept in an incubator for 24 hours prior to treatment. The following day, VDC or VDacac was added from a stock solution made in DMSO to yield final concentration ranging from 3.9 to 500 μM (final DMSO concentration=0.025%). Cells were returned to a 37° C. incubator for 24 hours.
(§2) The cytotoxicity of VDC and VDacac against the human tumor cell lines discussed above was assayed using the MTT (3-[4,5-dimethylthiazol-2-yl]-2,5-diphenyl tetrazolium bromide) assay (Boehringer Mannheim Corp., Indianapolis, Ind.). Briefly, exponentially growing tumor cells were seeded into a 96-well plate at a density of 2.5×10^4 cells/well and incubated for 36 hr at 37° C. prior to drug exposure. On the day of treatment, culture medium was carefully aspirated from the wells and replaced with fresh medium containing VDC or VDacac at concentrations ranging from 3.9 to 500 μM. Triplicate wells were used for each treatment. The cells were incubated with the vanadium compounds for 48 hours at 37° C. in a humidified 5% CO2 atmosphere. To each well, 10 μl of MTT (0.5 mg/ml final concentration) was added and the plates were incubated at 37° C. for 4 hours to allow MTT to form formazan crystals by reacting with metabolically active cells. The formazan crystals were solubilized overnight at 37° C. in a solution containing 10% SDS in 0.01 M HCl. The absorbence of each well was measured in a microplate reader (Labsystems, Helsinki, Finland) at 540 nm and a reference wavelength of 690 nm. To translate the OD540 values into the number of live cells in each well, the OD540 values were compared to those on standard OD540—versus—cell number curves generated for each cell line. The percent survival was calculated using the formula: % survival=Live cell number[test]/Live cell number [control]×100. The IC50 values were calculated by non-linear regression analysis using Graphpad Prism software version 2.0 (Graphpad Software, Inc., San Diego, Calif.).

[2] = system: BT-20 breast cancer cells; assay: MTT cytotoxicity assay; assay type: cell-based, human; conditions: BT20, 48 hours; read-out: IC50 (inhibition of cellular proliferation, MTT)
Experimental: as §1, §2

[3] = system: MDA-MB-231 breast cancer cells; assay: MTT cytotoxicity assay; assay type: cell-based, human; conditions: MDA-MB-231, 48 hours; read-out: IC50 (inhibition of cellular proliferation, MTT)
Experimental: as §1, §2

[4] = system: Zebrafish embryos; assay: Microinjection of Zebrafish embryos, cell division and development observed; assay type: in vivo, Zebrafish (Danio rerio)
Excerpt: VDC and VDacac were microinjected into Zebrafish embryos at room temperature, using a SMZ-10A stereo microscope (Nikon, Melville, N.Y.) and Transjector 5246 (Eppendorf, Westbury, N.Y.). Dechorionated Zebrafish embryos at the two-cell stage were transferred to a Petri dish filled with embryonic medium. The bottom of the Petri dish was covered with an agar layer, and the embryos were placed in grooves in agar, exactly as described in Westerfield, M., The Zebrafish Book, Supra. Microinjections were performed under visual control. At the 2-4 cell stage, approximately 2 nL of the compound dissolved in Hank's Balanced Salt Solution (HBSS) (Gibco, Rockville, Md.) with 10% DMSO was injected into the cytoplasm of one of the blastomeres through a constantly flowing micropipette with a splinted sharp tip of 2-3 μm diameter. Sham-treated control embryos were injected with 2 nL of HBSS containing 10% DMSO. After the treatment, the embryos were transferred to standard temperature, 28.5° C.
(§3) Observations of cell division and development of the Zebrafish embryos were carried out using a SMZ-10A stereo microscope, once every 30 minutes within the first 3 hours of incubation and at 6, 12 and 24 hours, as well. […] The stereo microscope was fitted with a specially designed transparent heating tray in order to keep embryos at ST during observations. Pictures of the embryos were taken with a H-III Photomicrographic System (Nikon) using Ektachrome 64X film (Kodak, Rochester, N.Y.).

[5] = system: Zebrafish embryos; assay: Zebrafish embryo model system: embryos exposed to compound in medium, cell division observed; assay type: in vivo, Zebrafish (Danio rerio); conditions: for inhibition of mitosis in treated embryos: 10 μM to 4 mM in medium; for effect on embryo development: 120 minutes; for effect on embryo cell division: thirty minutes after treatment
Experimental: Two-cell stage Zebrafish embryos were dechorionated with 1% trypsin-EDTA and treated with 1% DMSO at a temperature of 28.5° C. Zebrafish embryos were removed from their chorions by mild digestion in 1% Trypsin-EDTA (Sigma, St. Louis, Mo.) for 10 minutes at 28.5° C. (Standard temperature - ST), washed three times in “egg water” and twice in “embryonic medium” (EM) as described in Westerfield, M., The Zebrafish Book, Supra. The dechorionated two-cell stage cleaving eggs/embryos were transferred to the 24-well plastic cell culture plates (Costar, Cambridge, Mass.) filled with EM. Dechorionated embryos (10-12 per well) were exposed to VDC and VDacac at a constant ST for 0.5-24 hours. The final volume of the medium in each well was 500 μL. Both compounds were used at concentrations ranging from 10 μM to 4 mM. The compounds were dissolved in DMSO and then diluted serially with the incubation medium. The final concentration of DMSO in the wells was 1.2%. The sham-treated control embryos were incubated in EM in the presence of 1.2% DMSO.
as §3

[6] = system: BT-20 breast cancer cells; assay: Immunocytochemistry and confocal microscopic analysis of mitotic spindles; assay type: cell-based, human; conditions: BT-20 cells; for mitotic spindle morphology (α-tubulin, DNA): confocal microscopy
Experimental: as §1
At the appropriate time point, coverslips containing BT-20 cells were fixed in −20° C. methanol for 15 minutes followed by 15 minutes incubation in phosphate buffered saline +0.1% Triton X-100 (PBS+Tx). Coverslips were next incubated with a primary antibody recognizing α-tubulin (Sigma, St.Louis Mo.) γ-tubulin (BAbCo, Berkeley Calif.), or NuMA (Calbiochem, SanDiego Calif.) for 40 minutes in a humidified chamber at 37° C. Coverslips were washed for 15 minutes in PBS-Tx followed by a 40 min incubation with a fluorescently labeled secondary antibody (Jackson Immunoresearch, West Grove Pa.). For double labeling the respective primary and secondary antibodies were combined. The coverslips were again rinsed in PBS-Tx and incubated with 5 μM Toto−3 (Molecular Probes, Eugene Oreg.) for 20 minutes to label the DNA. Coverslips were immediately inverted onto slides in Vectashield (Vector Labs, Burlingame, N.H.) to prevent photobleaching, sealed with nail polish and stored at 4° C. Bovine oocytes were processed for immunocytochemistry as described previously. Navara et al., Dev. Biol., 162: 29-40, 1994.
Slides were examined using a Bio-Rad MRC-1024 Laser Scanning Confocal Microscope mounted on a Nikon Eclipse E800 upright microscope with high numerical aperture objectives. Digital data was processed using Lasersharp (Bio-Rad, Hercules Calif.) and Photoshop (Adobe Systems Mountain View Calif.) software and printed on a Pictrography printer (Fuji Photo Elmsford, N.Y.).

[7] = system: pharyngonasal cancer; conditions: single assay, Sakurai et al. 1995; cited from earlier work
[8] = system: dynein ATPase activity found in sperm axonemes; conditions: 100 μM
Experimental: The effect of VDC on ATPase and GTPase activity was determined by isolating sperm axonemes after treatment of human sperm with 100 μM VDC. Sperm were pelleted by centrifugation 1900×g for 15 min, washed twice in cold PBS, resuspended in extraction buffer (1.0% Triton X-100, 0.1 M NaCl, 4 mM MgSO4, 1 mM CaCL2, 0.1 mM EDTA, 0.1 mM ATP, 7 mM 2-mercaptoethanol, and 5 mM imidazole buffer pH 7.0) and disrupted using a Dounce homogenizer. This homogenized suspension was centrifuged at 1500×g for 5 min to remove sperm heads and the resulting supernatant was recentrifuged at 12,000×g to recover the broken axonemes.
The axoneme pellet was resuspended in extraction buffer to remove residual membrane material, centrifuged at 1500×g for 5 min to remove residual sperm heads followed by centrifugation at 12,000×g to recover axonemes. The recovered axonemes were washed three times in extraction buffer lacking Triton X-100 and resuspended in solubilization buffer (0.6 M NaCl, 4 mM MgSO4, 1 mM CaCl2, 0.1 mM EDTA, 1 mM DTT, 7 mM 2-mercaptoetanol, 5 mM imidazole buffer pH 7.0) to solubilize the readily extractable motor protein dynein. The suspension was then centrifuged at 12,000×g. […] ATPase activity was measured using the EnzChek Phophate assay kit (Molecular Probes, Eugene Oreg.) according to manufacturers instructions.

[9] = system: germinal vesicle stage bovine oocytes; conditions: 24 hours; for oocytes matured to metaphase of meiosis II (MII): control 93%
Experimental: Immature oocytes were recovered from bovine ovaries after slaughter by aspiration of 5 mm follicles. Only oocytes having a homogenous cytoplasm and surrounded by at least three layers of cumulus cells were selected. These were washed through three rinses of Hepes buffered Tyrode's media (114 mM NaCl, 3.2 mM KCl, 2 mM CaCl22H2O, […] MgCl26H2O, 25 mM NaHCO3, 0.4 mM NaH2PO4, 10 mM Na lactate, 100 I.U./ml Penicillin)(TL-Stock) modified with 10 mM Hepes, 1 mg/ml BSA, 0.2 mM pyruvate, and 25 μg/ml gentamicin (TL-Hepes; (16). Oocytes were matured for 24 hours in 50 μl drops of TC199 modified with 10% fetal bovine serum, 5 μg/ml FSH-p, 25μg/ml gentamicin, 1 μg/ml estrogen at 39° C. in 5% CO2 under mineral oil (17). After the oocytes were placed in the drops, 25 or 50 μM VDC was added in DMSO. Equal amounts of DMSO were added to control drops. Bovine oocytes were processed for immunocytochemistry after 24 hours.
Germinal vesicle stage bovine oocytes were matured in vitro in the presence of vehicle or VDC (25 μM or 50 μM). After 24 hours, these oocytes were fixed, labeled with anti-tubulin antibodies and the DNA dye TOTO−3. Oocytes were scored according to their stage in meoisis, microtubule organization and chromosome number.

[10] = system: tumor cell; conditions: Kopf-Maier et al. 1983; cited from earlier work

## CC(=O)C=C(C)[O-].O=S(=O)([O-])C(F)(F)F.[V+4].c1cc[cH-]c1.c1cc[cH-]c1 [VDacac, Vanadocene acetylacetonato monotriflate]
[1]
  IC50: 35.5 µM
[2]
  IC50: 26.9 µM
[3]
  IC50: 9.1 µM
[4]; 1 pmoL microinjected (lower)
  effect on embryonic development after microinjection: formation of a blastocoel-like cavity in the blastoderm and prevented gastrulation
[4]; 49 pmoL microinjected (higher)
  effect on embryonic development after microinjection: deterioration of cell localization and development failure
[5]
  inhibition of mitosis in treated embryos: inhibited mitosis in a concentration-dependent fashion
[5]; 0.4 mM
  effect on embryo development: developed similar defects
[5]; 0.6 mM
  effect on embryo cell division: cell division defects followed by fusion of the embryonic cells
[6]
  mitotic spindle morphology (α-tubulin, DNA): aberrant monopolar mitotic structures

## O.O.O=S(=O)([O-])[O-].[O]=[V+2].c1cnc2c(c1)ccc1cccnc12 [[VO(Phen)(H2O)2](SO4), (diaqua)(1,10-phenanthroline)oxovanadium (IV) sulfate]
[7]
  activity against pharyngonasal cancer: active agent against pharyngonasal cancer

## Vanadocene dichloride [VDC]
[1]
  IC50: 18.6 µM
[2]
  IC50: 14.9 µM
[3]
  IC50: 11 µM
[8]; four separate experiments
  inhibition of ATPase activity found in axonemes: 12.2%
[8]; control 0.08±0.01
  ATPase activity found in axonemes: 0.07±0.02
[4]; 0.64 pmol microinjected (lowest)
  effect on embryonic development after microinjection: formation of a blastocoel-like cavity in the blastoderm and prevented gastrulation
[4]; 32 pmol microinjected (higher)
  effect on embryonic development after microinjection: cell division slow-down and total disarray of cell localization and development arrest
[4]; 58 pmol microinjected (highest)
  effect on embryonic development after microinjection: total cell fusion within 30 minutes of microinjection
[9]; 25 μM
  oocytes matured to metaphase of meiosis II (MII): 16.2%
[9]; 50 μM
  oocytes matured to metaphase of meiosis II (MII): 10.0%
[9]; 25 or 50 μM, control 4%
  oocytes with abnormal meiotic spindles: ≥ 50%
[10]
  tumor cell growth: arrest tumor cell growth
[5]
  inhibition of mitosis in treated embryos: inhibited mitosis in a concentration-dependent fashion
[5]; 0.76 mM
  effect on embryo development: developed abnormal blastulae
[5]; 1.9 mM
  effect on embryo cell division: cell division defects followed by fusion of the embryonic cells
[6]
  NuMA localization: only localized to one side of the mitotic spindle
  γ-tubulin spindle pole labeling: two foci of γ-tubulin on the same side of the chromosomes
  mitotic spindle morphology (α-tubulin, DNA): aberrant monopolar mitotic structures
